Test results published in patent US20240287093A1, “HIGH ACTIVITY STING PROTEIN AGONIST” (ADLAI NORTYE BIOPHARMA CO., LTD., priority 2018, published 2024).

Assays:
Type in all cases: cell-based
STING variants (WT) = target: T1, STING variants (WT) (Homo sapiens, UniProt Q86WV6); assay: SEAP reporter assay in HEK-Blue ISG KO-STING cells transfected with STING WT variant (Method 2, 1 ng vector); settings: compound concentration 2.5 (mM as printed); 24 h; SEAP signal ratio to 0.5% DMSO
T1 construct: host or cells: HEK-Blue ISG KO-STING cells (Invivogen, hkb-kostg)
Source text: (§1) Example II: STING Variants (WT & HAQ) Activation by Compounds in HEK-Blue™ ISG KO-STING Cells (Method 2)
(§2) Activation of STING can be determined using a SEAP reporter assay in HEK-Blue™ ISG KO-STING cells (Invivogen, cat #hkb-kostg) transfected with plasmids expressing STING variants (WT & HAQ) (referred to WO2017/175147A1). STING variants (WT & HAQ) vector were constructed based on STING-232H vector (Origene, RC208418). GFP vector (VT2069) was bought from Youbio. The detailed protocol as follows: HEK-Blue™ ISG KO-STING cells were harvest and seeding into 96 well plate and the final cell number was 0.8×10^5 cells/well. Transfections were prepared using Lipofectamine 2000 (Invitrogen, Cat #11668-027) following the manufacturer's instructions (Lipo2000:DNA=1:10), 20 ul of transfection suspension containing 1 ng (WT variant) or 0.0625 ng (HAQ variant) STING vector was added to cell culture plate and incubated at 37° C., 5% CO2 for 24 h. After 24 hours incubation, compounds were added at proper concentration, the final DMSO concentration was 0.5%. After 24h incubation, the supernatant was collected to detect SEAP signal using Great EscAPe SEAP chemiluminescence KIT (Clontech, cat #631738) and cells were collected to detect cell viability using CellTiter-Glo Luminescent Cell Viability Assay(Promega, cat #G7573) following the manufacturer's instructions. The data were described by the ratio of the stimulating signal of compounds to 0.5% DMSO.

STING = target: T2, STING (Homo sapiens, UniProt Q86WV6, G230A/H232R/R293Q/R71H); assay: IFNβ release from THP1 by STING activation (hIFNβ ELISA); settings: THP1 cells, 24 h, IFN-β in supernatant; inactive = IFNβ not detected at the maximum concentration of compounds
T2 construct: THP1 was purchased from National Collection of Authenticated Cell Cultures (Cat #TCHu 57); host or cells: THP1
T2 sequence (Q86WV6 whole entry R71H/G230A/H232R/R293Q): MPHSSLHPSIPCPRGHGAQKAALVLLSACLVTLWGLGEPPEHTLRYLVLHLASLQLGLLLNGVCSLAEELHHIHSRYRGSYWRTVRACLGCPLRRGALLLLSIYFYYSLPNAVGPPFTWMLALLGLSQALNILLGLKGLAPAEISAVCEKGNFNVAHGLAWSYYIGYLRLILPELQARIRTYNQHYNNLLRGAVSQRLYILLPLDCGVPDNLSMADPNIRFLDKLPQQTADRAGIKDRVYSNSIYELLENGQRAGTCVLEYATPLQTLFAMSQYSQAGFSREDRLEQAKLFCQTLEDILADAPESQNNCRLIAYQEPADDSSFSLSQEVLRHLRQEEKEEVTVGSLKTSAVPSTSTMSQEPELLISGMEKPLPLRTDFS
In short: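 THP1 cells from log-phase culture, suspended at 2×10^6 cells/ml, were treated with an 8-point, 3-fold compound series (0.2% DMSO final) for 24 h at 37°C, 5% CO2. Secreted IFN-β in supernatant was quantified by human IFNβ ELISA, and EC50 was obtained by curve fitting.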

STING variants (HAQ) = target: T3, STING variants (HAQ) (Homo sapiens, UniProt Q86WV6, G230A/R293Q/R71H); assay: SEAP reporter assay in HEK-Blue ISG KO-STING cells transfected with STING HAQ variant (Method 2, 0.0625 ng vector); settings: compound concentration 5 (mM as printed); 24 h; SEAP signal ratio to 0.5% DMSO
T3 construct: host or cells: HEK-Blue ISG KO-STING cells (Invivogen, hkb-kostg)
T3 sequence (Q86WV6 whole entry R71H/G230A/R293Q): as the sequence (Q86WV6 whole entry R71H/G230A/H232R/R293Q) above, with R232H counted along it
Source text: as §1, §2

Fold change related to DMSO control, WT (STING variants (WT)) | EC50 (STING) | Fold change related to DMSO control, HAQ (STING variants (HAQ)) | hIFNβ ELISA (EC50, μM) (STING) | Structure (SMILES)
1.53 fold | > 22.7 µM | 2.42 fold |  | CCn1nc(C)cc1C(=O)Nc1nc2cc(C(N)=O)cc3c2n1CC(F)(F)CO3 [Example 53, 1-(1-Ethyl-3-methyl-1H-pyrazole-5-carboxamido)-8,8-difluoro-8,9-dihydro-7H-6-oxa-2,9a-diazabenzo[cd]azulene-4-carboxamide]
7.15 fold | 2.8 µM | 71.56 fold |  | CCn1nc(C)c(F)c1C(=O)Nc1nc2cc(C(N)=O)cc3c2n1CCCN3C [Example 66, 1-(1-Ethyl-4-fluoro-3-methyl-1H-pyrazole-5-carboxamido)-6-methyl-6,7,8,9-tetrahydro-2,6,9a-triazabenzo[cd]azulene-4-carboxamide]
1.53 fold | > 12.8 µM | 5.84 fold |  | CCn1nc(C)c(F)c1C(=O)Nc1nc2cc(C(N)=O)cc3c2n1CC1(CC1)CO3 [Example 64, 1-(1-ethyl-4-fluoro-3-methyl-1H-pyrazole-5-carboxamido)-7,9-dihydrospiro[6-oxa-2,9a-diazabenzo[cd]azulene-8,1′-cyclopropane]-4-carboxamide]
2.10 fold | > 16.7 µM | 15.19 fold |  | CCn1nc(C)c(F)c1C(=O)Nc1nc2cc(C(N)=O)cc3c2n1[C@@H](C)CCO3 [Example 63, (S)-1-(1-ethyl-4-fluoro-3-methyl-1H-pyrazole-5-carboxamido)-9-methyl-8,9-dihydro-7H-6-oxa-2,9a-diazabenzo[cd]azulene-4-carboxamide]
2.29 fold | > 16.7 µM | 7.79 fold |  | CCn1nc(C)c(F)c1C(=O)Nc1nc2cc(C(N)=O)cc3c2n1[C@@H](C(C)C)CO3 [Example 54, (S)-2-(1-Ethyl-4-fluoro-3-methyl-1H-pyrazole-5-carboxamido)-3-isopropyl-3,4-dihydro-5-oxa-1,2a-diazaacenaphthylene-7-carboxamide]
1.41 fold | > 5.6 µM | 2.12 fold |  | CCn1nc(C)c(Br)c1C(=O)Nc1nc2cc(C(N)=O)cc3c2n1CC(C)(C)CO3 [Example 46, 1-(4-Bromo-1-ethyl-3-methyl-1H-pyrazole-5-carboxamido)-8,8-dimethyl-8,9-dihydro-7H-6-oxa-2,9a-diazabenzo[cd]azulene-4-carboxamide]
1.63 fold | > 11.6 µM | 8.89 fold |  | CCn1nc(C)c(F)c1C(=O)Nc1nc2cc(C(N)=O)cc3c2n1CCCO3 [Example 65, 1-(1-ethyl-4-fluoro-3-methyl-1H-pyrazole-5-carboxamido)-8,9-dihydro-7H-6-oxa-2,9a-diazabenzo[cd]azulene-4-carboxamide]

More lines, now with the values behind:

Structure (SMILES) | Fold change related to DMSO control, WT (STING variants (WT)) | EC50 (STING) | Fold change related to DMSO control, HAQ (STING variants (HAQ)) | hIFNβ ELISA (EC50, μM) (STING)
CCn1nc(C)cc1C(=O)Nc1nc2cc(C(N)=O)cc3c2n1CC(C)(C)CN3 [Example 67, 1-(1-Ethyl-3-methyl-1H-pyrazole-5-carboxamido)-8,8-dimethyl-6,7,8,9-tetrahydro-2,6,9a-tri azabenzo[cd]azulene-4-carboxamide] | 7.90 fold | 14.9 µM | 49.72 fold | 
CCn1nc(C)cc1C(=O)Nc1nc2cc(C(N)=O)cc3c2n1C[C@@H](C)CO3 [Example 70, (R)-1-(1-Ethyl-3-methyl-1H-pyrazole-5-carboxamido)-8-methyl-8,9-dihydro-7H-6-oxa-2,9a-diazabenzo[cd]azulene-4-carboxamide] | 2.37 fold | > 50 µM | 10.57 fold | 
CCn1nc(C)cc1C(=O)Nc1nc2cc(C(N)=O)cc3c2n1CCCO3 [Example 57, 1-(1-Ethyl-3-methyl-1H-pyrazole-5-carboxamido)-8,9-dihydro-7H-6-oxa-2,9a-diazabenzo[cd]azulene-4-carboxamide] | 1.34 fold |  | 3.59 fold | inactive
CCn1nc(C)cc1C(=O)Nc1nc2cc(C(N)=O)cc3c2n1[C@@H](CO)CO3 [Example 58, (S)-2-(1-ethyl-3-methyl-1H-pyrazole-5-carboxamido)-3-(hydroxymethyl)-3,4-dihydro-5-oxa-1,2a-diazaacenaphthylene-7-carboxamide] | 1.06 fold | > 50 µM | 0.95 fold | 
CCn1nc(C)cc1C(=O)Nc1nc2cc(C(N)=O)cc3c2n1C[C@@H](CO)O3 [Example 52, (S)-2-(1-ethyl-3-methyl-1H-pyrazole-5-carboxamido)-4-(hydroxymethyl)-3,4-dihydro-5-oxa-1,2a-diazaacenaphthylene-7-carboxamide] | 0.82 fold |  | 0.82 fold | inactive
CC[C@H]1COc2cc(C(N)=O)cc3nc(NC(=O)c4c(Br)c(C)nn4CC)n1c23 [Example 49, (S)-2-(4-Bromo-1-ethyl-3-methyl-1H-pyrazole-5-carboxamido)-3-ethyl-3,4-dihydro-5-oxa-1,2a-diazaacenaphthylene-7-carboxamide] | 1.49 fold | > 2.5 µM | 1.94 fold | 
CCn1nc(C)cc1C(=O)Nc1nc2cc(C(N)=O)cc3c2n1CCCN3C [Example 60, 1-(1-ethyl-3-methyl-1H-pyrazole-5-carboxamido)-6-methyl-6,7,8,9-tetrahydro-2,6,9a-triaza benzo[cd]azulene-4-carboxamide] | 6.55 fold | 15.8 µM | 73.46 fold | 
CC[C@H]1COc2cc(C(N)=O)cc3nc(NC(=O)c4c(Cl)c(C)nn4CC)n1c23 [Example 48, (S)-2-(4-Chloro-1-ethyl-3-methyl-1H-pyrazole-5-carboxamido)-3-ethyl-3,4-dihydro-5-oxa-1,2a-diazaacenaphthylene-7-carboxamide] | 1.85 fold |  | 3.46 fold | inactive
C=CCCCn1nc(C)cc1C(=O)Nc1nc2cc(C(N)=O)cc3c2n1[C@@H](CCCN)CO3 [Example 50, (S)-3-(3-Aminopropyl)-2-(3-methyl-1-(pent-4-en-1-yl)-1H-pyrazole-5-carboxamido)-3,4-dihydro-5-oxa-1,2a-diazaacenaphthylene-7-carboxamide] | 0.83 fold |  | 1.27 fold | inactive
